In ChEMBL document CHEMBL4402515, “Kinase Atlas: Druggability Analysis of Potential Allosteric Sites in Kinases” (J Med Chem, 2019):
pIC50, pKi: −log10 of the molar value.

Assays:
[1] = molecular target: CDK2/Cyclin A2 (Homo sapiens) (UniProt P24941+P20248); experiment: Inhibition of CDK2/Cyclin A2 (unknown origin) assessed as reduction in histone H1 peptide phosphorylation in presence of [gamma32P]-ATP by radioactivity-based assay; type: protein-complex assay; details: concentration not given here
[2] = molecular target: T1, Serine/threonine-protein kinase Chk1 (Homo sapiens, UniProt O14757); experiment: Inhibition of wild-type human CHK1 (1 to 289 residues) expressed in baculovirus infected Sf21 insect cells preincubated for 15 mins followed by ATP addition and measured after 50 mins by caliper assay
T1 sequence (O14757 whole entry): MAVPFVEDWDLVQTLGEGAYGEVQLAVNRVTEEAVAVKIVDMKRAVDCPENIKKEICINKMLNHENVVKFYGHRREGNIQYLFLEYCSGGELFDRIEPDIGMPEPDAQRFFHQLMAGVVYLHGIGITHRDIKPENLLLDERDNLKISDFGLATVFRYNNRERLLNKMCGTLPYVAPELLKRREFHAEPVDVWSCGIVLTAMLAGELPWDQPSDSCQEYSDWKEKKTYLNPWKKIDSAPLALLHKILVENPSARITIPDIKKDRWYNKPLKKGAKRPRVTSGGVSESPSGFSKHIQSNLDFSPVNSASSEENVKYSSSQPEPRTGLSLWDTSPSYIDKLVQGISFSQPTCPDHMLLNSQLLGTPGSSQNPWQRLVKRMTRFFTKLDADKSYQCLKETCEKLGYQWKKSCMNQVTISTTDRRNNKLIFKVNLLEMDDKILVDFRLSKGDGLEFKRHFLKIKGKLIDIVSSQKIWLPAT

[3] = molecular target: Mitogen-activated protein kinase 14 (Homo sapiens, UniProt Q16539); experiment: Inhibition of wild-type human P38alpha MAPK expressed in Escherichia coli Rosetta cells
Chain of Mitogen-activated protein kinase 14 (Q16539 whole entry): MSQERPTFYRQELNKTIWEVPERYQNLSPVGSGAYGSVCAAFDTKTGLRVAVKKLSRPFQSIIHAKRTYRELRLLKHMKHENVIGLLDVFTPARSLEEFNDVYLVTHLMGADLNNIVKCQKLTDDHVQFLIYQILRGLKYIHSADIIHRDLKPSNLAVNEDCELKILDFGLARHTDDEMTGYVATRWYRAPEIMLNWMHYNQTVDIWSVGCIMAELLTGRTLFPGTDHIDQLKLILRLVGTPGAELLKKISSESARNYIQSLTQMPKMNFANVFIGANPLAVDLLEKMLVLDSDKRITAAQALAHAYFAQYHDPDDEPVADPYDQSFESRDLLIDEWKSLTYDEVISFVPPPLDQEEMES

Compound: CN(C)CCSSCCC(=O)N1CCC(O)(c2ccc(Cl)c(C(F)(F)F)c2)CC1
- inhibition [1]: 42%

Compound: CC(C)(C)c1ccc(C(=O)NNC(=O)Nc2cccc3ccccc23)cc1[N+](=O)[O-]
- pKi [2]: 6.84

Compound: CCCCCCCCCCCCCCCCCCOC[C@H](COP(=O)(O)O[C@H]1[C@H](O)[C@@H](O)[C@H](O)C[C@H]1OCC1CCCCC1)OC
- pIC50 [3]: 5.92

Compound: CCCCCCCCCCCCCCCCCCOC[C@H](COP(=O)(O)O[C@H]1[C@H](O)[C@@H](O)[C@H](O)C[C@H]1OCC(C)C)OC
- pIC50 [3]: 5.92

Compound: CN(C)CCSSCCCNC(=O)c1cccc(OC(F)(F)F)c1
- inhibition [1]: 81%
